This is an account of results in ChEMBL document CHEMBL5154734, “Novel potent benzimidazole-based microsomal prostaglandin E2 synthase-1 (mPGES-1) inhibitors derived from BRP-201 that also inhibit leukotriene C4 synthase” (Eur J Med Chem, 2022).

In series [1] the target is T1, Leukotriene C4 synthase (Homo sapiens, UniProt Q16873).
T1 sequence (Q16873 whole entry): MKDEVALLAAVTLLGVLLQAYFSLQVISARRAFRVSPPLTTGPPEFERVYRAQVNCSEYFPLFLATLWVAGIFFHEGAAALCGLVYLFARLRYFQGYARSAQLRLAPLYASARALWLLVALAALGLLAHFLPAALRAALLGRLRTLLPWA
Kind of series: Inhibition of recombinant LTC4S (unknown origin) expressed in COS cells. The series is classed as cell-based.

A further series addresses T2, Prostaglandin E synthase (Homo sapiens, UniProt O14684).
T2 sequence (O14684 whole entry): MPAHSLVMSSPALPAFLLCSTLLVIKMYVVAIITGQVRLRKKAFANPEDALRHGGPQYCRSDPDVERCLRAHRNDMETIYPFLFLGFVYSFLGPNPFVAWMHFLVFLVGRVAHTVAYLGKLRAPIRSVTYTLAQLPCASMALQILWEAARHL
Kind of series: Inhibition of mPGES-1 activity in human A549 microsomal preparation using PGH2 as substrate preincubated for 15 mins followed by substrate addition for 1 min by RP-HPLC analysis. The series is classed as microsomes, Microsome.

The target of series [2] is T1, Leukotriene C4 synthase. Nature of the series: Inhibition of human recombinant LTC4S expressed in HEK293 cell microsomal fraction preincubated for 10 mins followed by LTA4-methyl ester addition and measured after 10 mins by UPLC-MS/MS analysis. The series is classed as microsomes, Microsome.
Series [3] has as its target T3, Polyunsaturated fatty acid 5-lipoxygenase (Homo sapiens) (UniProt P09917).
T3 sequence (whole entry): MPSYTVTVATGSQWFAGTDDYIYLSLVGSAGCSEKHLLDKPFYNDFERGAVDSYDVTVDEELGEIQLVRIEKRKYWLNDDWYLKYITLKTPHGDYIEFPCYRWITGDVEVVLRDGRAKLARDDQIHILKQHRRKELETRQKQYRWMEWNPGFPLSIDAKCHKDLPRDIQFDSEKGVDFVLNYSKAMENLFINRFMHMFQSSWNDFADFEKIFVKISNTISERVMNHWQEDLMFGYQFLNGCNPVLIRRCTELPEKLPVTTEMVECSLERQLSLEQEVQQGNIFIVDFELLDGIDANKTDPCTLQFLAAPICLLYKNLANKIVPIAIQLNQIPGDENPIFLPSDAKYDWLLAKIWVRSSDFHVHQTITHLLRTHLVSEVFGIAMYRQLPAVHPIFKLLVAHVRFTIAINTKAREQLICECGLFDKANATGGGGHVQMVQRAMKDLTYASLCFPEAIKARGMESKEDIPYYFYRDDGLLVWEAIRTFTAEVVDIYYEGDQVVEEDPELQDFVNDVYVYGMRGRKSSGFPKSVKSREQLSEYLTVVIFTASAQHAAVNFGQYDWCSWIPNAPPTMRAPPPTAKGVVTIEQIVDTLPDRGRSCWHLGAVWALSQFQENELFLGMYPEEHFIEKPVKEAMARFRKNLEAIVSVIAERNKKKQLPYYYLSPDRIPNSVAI
Kind of series: Inhibition of 5-LOX in human neutrophils assessed as reduction in FLAP-dependent 5-LO product LTB4 formation at upto 10 uM preincubated for 10 mins followed by A23187 addition and measured after 10 mins by RP-HPLC and UV detection method. Type of series: cell-based. To be noted: Neutrophil.

The subject of a further series is Neutrophil. Kind of series: Cytotoxicity against human neutrophils assessed as reduction in cell viability at 10 uM by LDH release assay. The series is classed as toxicity, cell-based.
Series [4] has as its target T4, Polyunsaturated fatty acid 5-lipoxygenase (Homo sapiens, UniProt P09917).
T4 sequence (P09917 whole entry): T3 sequence (whole entry)
Nature of the series: Inhibition of human recombinant 5-LOX expressed in Escherichia coli BL21 assessed as inhibition of […] 5-LO product LTB4 formation preincubated for 15 mins followed by arachidonic acid addition and measured after 10 mins by RP-HPLC analysis.

For series [5], the target named is T5, Prostaglandin E synthase (Homo sapiens) (UniProt O14684).
T5 sequence (whole entry): T2 sequence (O14684 whole entry)
Kind of series: Inhibition of mPGES-1 activity in IL-1beta human A549 microsomal preparation at 10 uM using PGH2 as substrate preincubated for 15 mins followed by substrate addition for 1 min by RP-HPLC analysis. The series is classed as microsomes. To be noted: Microsome, time 16.0 min.

Calls of active or inactive are those of the source. No cut-off for these calls is given here.

On to `CC(C)c1ccc2c(c1)c(SC(C)(C)C)c(CC(C)(C)C(=O)O)n2Cc1ccc(Cl)cc1`, for which the IC50 on Leukotriene C4 synthase [1] amounted to 3000 nM.

With `O=C(Nc1cccc(-c2n[nH]c(=S)o2)c1)c1ccc(OCc2ccccc2)cc1`, the IC50 at Prostaglandin E synthase came to 2500 nM.

`S=c1[nH]nc(-c2ccc3[nH]c(Cc4ccc(OCc5ccccc5)cc4)nc3c2)o1` showed an IC50 at Prostaglandin E synthase of 1600 nM.

Regarding `CC(c1ccc(Oc2ccccc2)cc1)c1nc2cc(-c3n[nH]c(=S)o3)ccc2[nH]1` (configuration not stated), the 50% inhibitory concentration (IC50) was determined as 400 nM at Leukotriene C4 synthase [2], 90 nM on Prostaglandin E synthase and 2620 nM in series [4]. Further, in series [3], the inhibition entry is “Active”. Further, in the series with Neutrophil, the Activity result was “Non-Toxic”.

In the case of `O=C(Nc1cc(-c2n[nH]c(=S)o2)ccc1F)c1ccc(OCc2ccccc2)cc1`, the midpoint of inhibition against Prostaglandin E synthase, the IC50, lay at 2200 nM.

As for `COc1cc(-c2nc3cc(-c4n[nH]c(=S)o4)ccc3[nH]2)ccc1OCc1ccccc1`, the inhibition entry in series [5] was “Active”.

Take `S=c1[nH]nc(-c2ccc3[nH]c(-c4ccc(OCc5ccccc5)cc4)nc3c2)o1`: the IC50 on Leukotriene C4 synthase [2] was found to be 700 nM; at Prostaglandin E synthase it was 30 nM; in series [4], 1260 nM. Besides, the inhibition entry in series [3] and in series [5] was “Active” throughout. For the same compound, the Activity result in the series with Neutrophil is on record as “Non-Toxic”.

On to `Cn1c(-c2ccc(OCc3ccccc3)cc2)nc2cc(-c3n[nH]c(=S)o3)ccc21`, for which, on Prostaglandin E synthase, 1060 nM corresponded to half-maximal inhibition (IC50).

On to `S=c1[nH]nc(-c2ccc3[nH]c(-c4ccc(Oc5ccccc5)cc4)nc3c2)o1`, for which the IC50 at Leukotriene C4 synthase [2] is 2800 nM; at Prostaglandin E synthase it was 30 nM; in series [4], 3710 nM. In addition, the inhibition result in series [3] was “Active”. In the series with Neutrophil, the Activity entry is given as “Non-Toxic”.
